Test results as given in patent US11883407B2, “Medicament for the treatment of chronic cough” (Shionogi & Co., Ltd., priority 2018, dated 2024).
Read-outs that look alike come from different tables or passages of the source.

Assays:
[1] = tested on: nerve fibers of the ganglion inferius; details: guinea pig lung tissue; cited from earlier work
[2] = human, in vivo; cited from earlier work
[3] = cited from earlier work
[4] = tested on: pulmonary vagal afferent C and A fibers; details: cited from earlier work
[5] = cited from earlier work; for dysgeusia as adverse event: 12 weeks
[6] = tested on: patients with chronic cough; details: cited from earlier work
[7] = Study MK-7264-012 (NCT02612610) of Gefapixant: taste-related adverse events; type: in vivo, human; details: 50 mg; difference between treatment groups
Method: In addition, a large number of clinical trial protocols for AF-219 (MK-7264, Gefapixant) and their results are recorded on ClinicalTrials.gov. For example, the results of a trial in which 253 of the 367 candidate patients were randomly assigned to a twice daily oral administration group of a placebo, 7.5 mg, 20 mg or 50 mg of AF-219 to confirm the therapeutic effect after 12 weeks, have been published under the identification number NCT02612610. Among the trial results, it was published that as one of the adverse events, for example, dysgeusia was confirmed in each dose group: 9.52% (7.5 mg administration group, 6 out of 63 cases), 33.33% (20 mg administration group, 21 out of 63 cases) and 47.62% (50 mg administration group, 30 out of 63 cases). […]
Based on the above results, for the proportion of subjects who experienced any of the taste-related adverse events, the study design of each study was taken into account, and as the difference between each investigational drug and placebo, the mean of differences of incidence in the same subject between the treatments and the two-sided 95% confidence interval thereof were calculated for Test Example 6, and the difference of incidence between the Gefapixant 50 mg treatment group and the placebo treatment group and the two-sided 95% confidence interval thereof were calculated for the study MK-7264-012.

[8] = 50 mg twice daily, 63 subjects in safety analysis

COc1cc(C(C)C)c(Oc2cnc(N)nc2N)cc1I [AF-353]
action potential in nerve fibers of the ganglion inferius evoked by ATP or αβ-methylene ATP [1]: almost completely suppressed

Cc1cnc(-c2cc(O[C@@H]3CCOC3)cc(C(=O)N[C@H](C)c3cnc(C(F)(F)F)nc3)c2)s1 [BAY-1817080]
number of coughs per 24 hours [2]: a reduction in the number of coughs per 24 hours was confirmed

CNC(=O)c1cc(F)c(-c2nc3cc(C)ccn3c2C[C@H]2CN(C(=O)OC)CCO2)c(F)c1 [BLU-5937]
taste changes, subjects ([3]; 100 mg (n=16)): 6.3%
partial taste loss, subjects ([3]; 400 mg (n=16)): 6.25%
taste changes, subjects ([3]; 400 mg (n=16)): 37.5%
partial taste loss, subjects ([3]; 800 mg (n=8)): 12.5%
taste changes, subjects ([3]; 800 mg (n=8)): 62.5%
taste changes, subjects ([3]; 1200 mg (n=8)): 25%
course of taste-related adverse events ([3]; single and repeated administration): all taste-related adverse events were transient and sporadic

O=C(O)c1cc(C(=O)O)c(C(=O)N(Cc2cccc(Oc3ccccc3)c2)[C@H]2CCCc3ccccc32)cc1C(=O)O [Compound A-317491, (5-({3-phenoxybenzyl)[(1S)-1,2,3,4-tetrahydro-1-naphthalenyl]amino}carbonyl)-1,2,4-benzenetricarboxylic acid]
activity of pulmonary vagal afferent C and A fibers by α,βmATP [4]: inhibits activity of the pulmonary vagal afferent C and A fibers

COc1cc(C(C)C)c(Oc2cnc(N)nc2N)cc1S(N)(=O)=O [Gefapixant]
dysgeusia as adverse event ([5]; 7.5 mg twice daily, 6 out of 63 cases): 9.52%
dysgeusia as adverse event ([5]; 20 mg twice daily, 21 out of 63 cases): 33.33%
dysgeusia as adverse event ([5]; 50 mg twice daily, 30 out of 63 cases): 47.62%
Ageusia, number of subjects and incidence [5, 8]: 13 (20.6%)
Any of taste-related adverse events, number of subjects and incidence [5, 8]: 51 (81.0%)
Dysgeusia, number of subjects and incidence [5, 8]: 30 (47.6%)
Hypogeusia, number of subjects and incidence [5, 8]: 15 (23.8%)
hypogeusia as adverse event ([6]; 13 out of 24 cases): 54%
dysgeusia as adverse event ([6]; 21 out of 24 cases): 88%
participants who discontinued the trial due to a taste disturbance (hypogeusia or dysgeusia) ([6]; human, in vivo): 6
taste-related disorder ([6]; patients administered with AF-219): all patients developed some kind of taste-related disorder
reduction of the frequency of daytime cough compared to the placebo group ([6]; patients with chronic cough): 75%
Difference of incidence of any of the taste-related adverse events (drug − placebo) [7]: 74.6%

TNP-ATP
action potential in nerve fibers of the ganglion inferius evoked by ATP or αβ-methylene ATP [1]: almost completely suppressed
